US7713994B2 (Wyeth LLC, priority 2005, dated 2010)
Like-named read-outs stand apart in the source and are kept apart here.

Tests used:
[1] = tested on: MCF-7; experiment: Cytotoxicity assay (SRB), MCF-7; type: cell-based; details: Homo sapiens, MCF7, 72 h, read-out: In Vitro Cellular Activity IC50 MCF-7
Method in brief: (§1)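 Overnight-seeded monolayers (4000–12000 cells/well by line) receive compound in 5% FBS medium at 37 °C, 7% CO2. After 3 d, or 6 d for BT474, cellular protein is fixed with cold TCA, stained with SRB and read at 540 nm against untreated wells.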

[2] = tested on: BT474; experiment: Cytotoxicity assay (SRB), BT474; type: cell-based; details: Homo sapiens, BT-474, 144 h, read-out: In Vitro Cellular Activity IC50 BT474
Method in brief: as §1

[3] = target: T1, cyclin D1/cdk 4 enzyme (Homo sapiens, UniProt P11802); experiment: CDK4 ELISA kinase assay (phospho-Rb ser 795 detection); type: biochemical; details: In Vitro Enzyme Assays, 200 μM ATP, read-out: CDK4 IC50
T1 construct: made in house; host or cells: Sf9 insect cells, recombinant baculovirus
T1 sequence (P11802 whole entry, species assumed): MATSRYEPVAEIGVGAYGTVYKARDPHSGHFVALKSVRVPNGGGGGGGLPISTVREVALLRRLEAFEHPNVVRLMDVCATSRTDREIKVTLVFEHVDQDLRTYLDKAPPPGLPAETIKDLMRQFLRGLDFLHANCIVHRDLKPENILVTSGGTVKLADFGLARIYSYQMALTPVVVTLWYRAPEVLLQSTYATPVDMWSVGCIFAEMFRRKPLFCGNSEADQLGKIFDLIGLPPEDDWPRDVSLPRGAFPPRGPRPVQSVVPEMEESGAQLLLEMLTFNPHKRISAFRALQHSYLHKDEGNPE
T1 sequence (P24385 whole entry partner, species assumed): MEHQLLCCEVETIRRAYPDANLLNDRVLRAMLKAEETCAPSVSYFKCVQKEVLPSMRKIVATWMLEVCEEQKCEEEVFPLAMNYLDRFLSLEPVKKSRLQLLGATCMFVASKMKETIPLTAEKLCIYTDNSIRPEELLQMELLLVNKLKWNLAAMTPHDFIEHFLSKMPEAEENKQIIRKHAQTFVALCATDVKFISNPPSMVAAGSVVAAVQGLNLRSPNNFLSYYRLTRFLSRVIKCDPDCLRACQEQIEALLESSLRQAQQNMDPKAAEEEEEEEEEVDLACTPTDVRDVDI
Method in brief: (§2)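 Screening was done at 10 ug/ml compound. Each partially purified cyclin/CDK complex, produced in baculovirus-infected Sf9 cells, phosphorylated a coated GST-Rb C-terminal fragment with 200 μM ATP, and Ser795 phosphorylation was quantified by HRP-ELISA at 450 nm.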

[4] = target: T2, cyclin B/CDK1 enzyme (Homo sapiens, UniProt P06493); experiment: CDK1 ELISA kinase assay (phospho-Rb ser 795 detection); type: biochemical; details: In Vitro Enzyme Assays, read-out: CDK1 IC50
T2 construct: purchased New England BioLabs; host or cells: Sf9 insect cells, recombinant baculovirus
T2 sequence (P06493 whole entry): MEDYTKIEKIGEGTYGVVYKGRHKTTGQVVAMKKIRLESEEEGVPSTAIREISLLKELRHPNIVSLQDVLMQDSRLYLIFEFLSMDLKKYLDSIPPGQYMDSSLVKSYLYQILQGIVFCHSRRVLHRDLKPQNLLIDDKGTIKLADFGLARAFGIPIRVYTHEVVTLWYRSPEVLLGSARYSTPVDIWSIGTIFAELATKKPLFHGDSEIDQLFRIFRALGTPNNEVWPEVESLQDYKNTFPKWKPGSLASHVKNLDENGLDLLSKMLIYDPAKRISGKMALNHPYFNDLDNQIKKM
T2 sequence (P14635 whole entry partner): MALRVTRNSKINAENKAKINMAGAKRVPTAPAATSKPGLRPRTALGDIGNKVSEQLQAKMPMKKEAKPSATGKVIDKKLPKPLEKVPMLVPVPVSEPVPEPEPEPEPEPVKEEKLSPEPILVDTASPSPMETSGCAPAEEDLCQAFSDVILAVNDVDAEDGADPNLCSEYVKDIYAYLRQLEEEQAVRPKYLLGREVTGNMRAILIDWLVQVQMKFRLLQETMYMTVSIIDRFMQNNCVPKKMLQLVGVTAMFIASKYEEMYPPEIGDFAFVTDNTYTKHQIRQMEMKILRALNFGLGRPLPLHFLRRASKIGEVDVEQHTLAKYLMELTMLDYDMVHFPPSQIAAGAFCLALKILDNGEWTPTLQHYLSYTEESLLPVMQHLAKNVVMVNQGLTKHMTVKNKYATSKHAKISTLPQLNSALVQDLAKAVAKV
Method in brief: as §2

[5] = tested on: HCT-116; experiment: Cytotoxicity assay (SRB), HCT-116; type: cell-based; details: Homo sapiens, HCT-116, 72 h, read-out: In Vitro Cellular Activity IC50 HCT116
Method in brief: as §1

[6] = target: T3, cyclin E/CDK2 enzyme (Homo sapiens, UniProt P24941); experiment: CDK2 ELISA kinase assay (phospho-Rb ser 795 detection); type: biochemical; details: In Vitro Enzyme Assays, read-out: CDK2 IC50
T3 construct: made in house; host or cells: Sf9 insect cells, recombinant baculovirus
Method in brief: as §2

[7] = tested on: LoVo; experiment: Cytotoxicity assay (SRB), LoVo; type: cell-based; details: Homo sapiens, LoVo, 72 h, read-out: In Vitro Cellular Activity IC50 LOVO
Method in brief: as §1

| SMILES | IC50 [1] | IC50 [2] | IC50 [3] | IC50 [4] | melting point | IC50 [5] | IC50 [6] | IC50 [7] | IC50 ([1]; MCF-7 cells, SRB, three days) | IC50 ([2]; BT474 cells, SRB, 6 days) | IC50 ([5]; HCT116 cells, SRB, three days) | IC50 ([7]; LoVo cells, SRB, three days) |
| --- | --- | --- | --- | --- | --- | --- | --- | --- | --- | --- | --- | --- |
| CN1CCN(c2ccc(N/C=C3\C(=O)NC(=O)c4ccc(-c5ccc(-c6cccs6)s5)cc43)cc2)CC1 [Example 182, (4Z)-6-(2,2′-Bithien-5-yl)-4-({[4-(4-methylpiperazin-1-yl)phenyl]amino}methylene)-isoquinoline-1,3(2H,4H)-dione] | > 50 µM | 17 µM | 2.3 µM | 2.3 µM | 204 to 205 °C | > 50 µM | > 50 µM | > 50 µM |  |  |  |  |
| COC(=O)Nc1ccc(CN/C=C2\C(=O)NC(=O)c3ccc(Br)cc32)cc1OC(=O)OC [Example 184, 5-({[(Z)-(6-Bromo-1,3-dioxo-2,3-dihydroisoquinolin-4(1H)-′ylidene)methyl]amino}methyl)-2-[(methoxycarbonyl)amino]phenyl methyl carbonate] |  |  | 6 µM | > 50 µM | 179 to 180 °C |  | 41.5 µM |  | 50 µM | 8.5 µM | 13 µM | 20 µM |
| CN1CCN(c2ccc(N/C=C3\C(=O)NC(=O)c4ccc(C#Cc5ccsc5)cc43)cc2)CC1 [Example 187, (4Z)-4-({[4-(4-Methylpiperazin-1-yl)phenyl]amino}methylene)-6-(thien-3-ylethynyl)-isoquinoline-1,3(2H,4H)-dione] |  |  | 2.3 µM | 1.7 µM | 193 to 194 °C |  | 3.3 µM |  | 3 µM | 2.9 µM | 1.1 µM | 8.5 µM |
| CN1CCN(c2ccc(N/C=C3\C(=O)NC(=O)c4ccc(NS(=O)(=O)c5ccccc5)cc43)cc2)CC1 [Example 188, 1,2,3,4-Tetrahydroisoquinolin-6-yl]benzenesulfonamide′N-[(4Z)-4-({[4-(4-methylpiperazin-1-yl)phenyl]amino}methylene)-1,3-dioxo] |  |  | 33.2 µM | 24.2 µM | 289 to 290 °C |  | 39.7 µM |  | 12 µM | 3.3 µM | 2.2 µM | 11 µM |
| CCCOc1ccc(CN/C=C2\C(=O)NC(=O)c3ccc(-c4ccc(F)cc4)cc32)cc1O [Example 192, (4Z)-6-(4-Fluorophenyl)-4-{[(3-hydroxy-4-propoxybenzyl)amino]methylene}-isoquinoline-1,3(2H,4H)-dione] |  |  | 0.04 µM | > 50 µM | 194 to 195 °C |  | > 50 µM |  | 2.4 µM | 16 µM | 6.8 µM | 40 µM |
| COc1ccc(CN/C=C2\C(=O)NC(=O)c3ccc(NS(=O)(=O)c4ccccc4)cc32)cc1O [Example 196, N-((4Z)-4-{[(3-Hydroxy-4-methoxybenzyl)amino]methylene}-1,3-dioxo-1,2,3,4-′tetrahydroisoquinolin-6-yl)benzenesulfonamide] |  |  | 1.1 µM | > 50 µM | 245 to 246 °C |  | 40.6 µM |  | 38 µM | 37 µM | 35 µM | 37 µM |
| CC1CN(c2ccc(N/C=C3\C(=O)NC(=O)c4ccc(Br)cc43)cc2)CC(C)N1 (stereo not shown) [Example 201] |  |  | 4.1 µM | > 50 µM | 229 to 230 °C |  | > 50 µM |  | 1.7 µM | 1.4 µM | 1.1 µM | 1.4 µM |
| CN1CCN(NC(=O)Nc2ccc(N/C=C3\C(=O)NC(=O)c4ccc(Br)cc43)cc2)CC1 [Example 217, N-(4-{[(Z)-(6-Bromo-1,3-dioxo-2,3-dihydroisoquinolin-4(1H)-′ylidene)methyl]amino}phenyl)-N′-(4-methylpiperazin-1-yl)urea] |  |  | 13.9 µM | 31.7 µM | 270 to 271 °C |  | > 50 µM |  | 7.4 µM | 3.3 µM | 2.6 µM | 4.8 µM |
| O=C1NC(=O)c2ccc(Br)cc2/C1=C/NCc1ccc(NC(=O)C(F)(F)F)c(O)c1 [Example 218, N-[4-({[(Z)-(6-Bromo-1,3-dioxo-2,3-dihydroisoquinolin-4(1H)-′ylidene)methyl]amino}methyl)-2-hydroxyphenyl]-2,2,2-trifluoroacetamide] |  |  | 0.15 µM | > 50 µM | 278 to 279 °C |  | > 50 µM |  | 19 µM | 2.6 µM | 3.3 µM | 4.5 µM |
| O=C1NC(=O)c2ccc(Br)cc2/C1=C/NCc1ccc(OCC2CC2)c(O)c1 [Example 219, (4Z)-6-Bromo-4-({[4-(cyclopropylmethoxy)-3-′hydroxybenzyl]amino}methylene)isoquinoline-1,3(2H,4H)-dione] |  |  | 0.27 µM | > 50 µM | 210 to 211 °C |  | > 50 µM |  | 32 µM | 1.9 µM | 2.8 µM | 6.9 µM |
| CN1CCN(c2ccc(N/C=C3\C(=O)N(CO)C(=O)c4ccc(Br)cc43)cc2)CC1 [Example 220, (4Z)-6-Bromo-2-(hydroxymethyl)-4-({[4-(4-methylpiperazin-1-yl)phenyl]amino}methylene)isoquinoline-1,3(2H,4H)-dione] |  |  | 3.3 µM | > 50 µM | 141 to 142 °C |  | > 50 µM |  | 2.4 µM | 3.3 µM | 3.2 µM | 3.8 µM |
| Cc1ccc(C)n1-c1ccc2c(c1)/C(=C/Nc1ccc(N3CCN(C)CC3)cc1)C(=O)NC2=O [Example 226, (4Z)-6-(2,5-Dimethyl-1H-pyrrol-1-yl)-4-({[4-(4-methylpiperazin-1-′yl)phenyl]amino}methylene)isoquinoline-1,3(2H,4H)-dione] |  |  | 0.4 µM | > 50 µM | 264 to 265 °C |  | 2.4 µM |  | 5.2 µM | 3.3 µM | 2.4 µM | 4.4 µM |
| CCCOc1ccc(CN/C=C2\C(=O)N(O)C(=O)c3ccccc32)cc1O [Example 230, 2-Hydroxy-4-[(3-hydroxy-4-propoxy-benzylamino)-methylene]-4H-isoquinoline-1,3-dione] |  |  | 27.7 µM | > 50 µM | 176 to 178 °C |  | 38 µM |  | 3.1 µM | 6.4 µM | 2.1 µM | 3.8 µM |
| CN1CCN(c2ccc(N/C=C3\C(=O)NC(=O)c4ccc(I)cc43)cn2)CC1 [Example 237, (4Z)-6-Iodo-4-({[6-(4-methylpiperazin-1-yl)pyridin-3-′yl]amino}methylene)isoquinoline-1,3(2H,4H)-dione] |  |  | 0.44 µM | 32.4 µM | 189 to 190 °C |  | 22.6 µM |  | 4 µM | 3.2 µM | 2.6 µM | 7.4 µM |
| CN1CCC(c2ccc(N/C=C3\C(=O)NC(=O)c4ccc(I)cc43)cc2)CC1 [Example 239, (4Z)-6-Iodo-4-({[4-(1-methylpiperidin-4-yl)phenyl]amino}methylene)isoquinoline-1,3(2H,4H)-dione] |  |  | 0.31 µM | > 50 µM | 215 to 216 °C |  | 4.2 µM |  | 4 µM | 7.9 µM | 2.5 µM | 7.7 µM |
| C[C@@H]1CN(c2ccc(N/C=C3\C(=O)NC(=O)c4ccc(Br)cc43)cc2)C[C@H](C)N1C [Example 240, (4Z)-6-Bromo-4-[({4-[(3R,5S)-3,4,5-trimethylpiperazin-1-yl]phenyl}amino)methylene]-isoquinoline-1,3(2H,4H)-dione] |  |  | 17.3 µM | > 50 µM | 213 to 214 °C |  | > 50 µM |  | 2 µM | 3.1 µM | 2.7 µM | 3.7 µM |
| C[C@@H]1CN(c2ccc(N/C=C3\C(=O)NC(=O)c4ccc(-c5ccoc5)cc43)cc2)C[C@H](C)N1C [Example 241, (4Z)-6-(3-Furyl)-4-[({4-[(3R,5S)-3,4,5-trimethylpiperazin-1-yl]phenyl}amino)-methylene]isoquinoline-1,3(2H,4H)-dione] |  |  | 0.45 µM | > 50 µM | 204 to 205 °C |  | > 50 µM |  | 1.3 µM | 1.2 µM | 1.9 µM | 3.8 µM |
